{"source": "patent US20250059141A1", "about": "“TLR MODULATOR AND USE THEREOF” (DUALITY BIOLOGICS (SUZHOU) CO., LTD., priority 2021, published 2025)"}
{"biological_target": "T1, hTLR7 (human Toll-like receptor 7) (Homo sapiens, UniProt Q9NYK1)", "T1 construct": "host or cells: HEK-Blue hTLR7 (HEK293-derived reporter cells)", "T1 sequence (Q9NYK1 27-1049)": "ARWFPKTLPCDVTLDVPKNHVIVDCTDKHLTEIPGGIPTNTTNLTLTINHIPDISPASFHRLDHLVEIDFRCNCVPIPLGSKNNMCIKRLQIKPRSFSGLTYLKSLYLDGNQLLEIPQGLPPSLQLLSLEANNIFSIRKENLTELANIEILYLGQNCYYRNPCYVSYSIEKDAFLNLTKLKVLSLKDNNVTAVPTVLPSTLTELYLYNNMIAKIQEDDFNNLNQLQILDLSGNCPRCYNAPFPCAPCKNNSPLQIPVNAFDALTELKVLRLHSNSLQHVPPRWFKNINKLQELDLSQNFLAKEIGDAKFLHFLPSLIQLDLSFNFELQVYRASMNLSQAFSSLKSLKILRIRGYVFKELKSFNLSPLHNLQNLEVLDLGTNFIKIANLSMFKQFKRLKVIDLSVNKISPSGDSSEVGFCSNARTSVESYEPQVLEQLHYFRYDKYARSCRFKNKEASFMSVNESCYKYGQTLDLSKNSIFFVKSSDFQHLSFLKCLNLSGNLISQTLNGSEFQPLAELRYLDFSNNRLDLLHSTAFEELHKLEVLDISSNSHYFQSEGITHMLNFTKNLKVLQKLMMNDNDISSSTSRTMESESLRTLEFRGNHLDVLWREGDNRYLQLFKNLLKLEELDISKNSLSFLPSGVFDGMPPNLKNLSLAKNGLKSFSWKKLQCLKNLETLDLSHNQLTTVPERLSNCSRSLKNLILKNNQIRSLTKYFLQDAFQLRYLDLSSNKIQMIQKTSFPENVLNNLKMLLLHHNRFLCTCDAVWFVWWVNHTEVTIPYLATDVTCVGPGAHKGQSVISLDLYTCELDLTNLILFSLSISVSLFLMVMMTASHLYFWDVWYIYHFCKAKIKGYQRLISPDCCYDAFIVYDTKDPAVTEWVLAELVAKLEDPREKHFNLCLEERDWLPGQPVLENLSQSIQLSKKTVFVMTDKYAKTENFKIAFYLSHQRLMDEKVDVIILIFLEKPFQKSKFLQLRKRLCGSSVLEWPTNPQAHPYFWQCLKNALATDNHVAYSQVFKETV", "test": "HEK-Blue hTLR7 reporter assay (QUANTI-Blue, OD650)", "type": "cell-based", "conditions": "HEK-Blue hTLR7 cells, 24 h; class symbols; read-out: Reporter assay TLR7 EC50", "description": "(§1) In this example, the agonistic activity of the compounds of the present application on hTLR7 (human Toll-like receptor 7) and hTLR8 (human Toll-like receptor 8) was assessed; the induction activity of the compounds on human PBMCs for TNF-α and IFN-α production was assessed in human PBMCs (human peripheral blood mononuclear cells).\n(§2) All compounds were formulated in DMSO into 30 mM stock solutions and preserved at 4° C. The reference compound ([…], Cat. No. tlrl-r848-5) was purchased from InvivoGen and formulated into a 5 mg/mL stock solution in DMSO and preserved in a freezer at −20° C. HEK-Blue hTLR7 and HEK-Blue hTLR8 cell lines were purchased from InvivoGen, and human PBMCs were purchased from Shanghai Saily Biotechnology Co., Ltd. (Cat. No. XFB—HP100B).\n(§3) The major instruments used in this study were multifunctional microplate reader Flexstation III (Molecular Device), Envision (Perkin Elmer), M2e (Molecular Device), and Echo555 (Labcyte). 2.1 Agonistic activity of compounds on hTLR7 (human Toll-like receptor 7) and hTLR8 (human Toll-like receptor 8)\n(§4) Compound dilution: The compounds of the present application are diluted in DMSO, for example, to about 15 mM. The reference compound was added to the plates in sequence after dilution. The compounds were serially 3-fold diluted to 10 concentrations and added to 96-well plates in duplicate.\n(§5) For the negative control wells, DMSO was added at 0.2 μL/well, and the reference compound was added to the positive control wells. The final concentration of DMSO was 0.2%.\n(§6) Cell plating: When an 80% confluence of HEK Blue hTLR7&8 cells in the culture flask was observed under a microscope, the culture medium was discarded, 10 mL of detection medium was added, and the cells were separated by pipetting. The cells were counted on a cytometer and diluted to 500,000 cells/mL. The cells were plated at 100 μL/50,000 cells/well in the 96-well plates containing the compounds. The compounds and cells were co-incubated at 37° C. in a 5% CO2 incubator for 24 hours.\n(§7) Compound activity detection: 20 μL of cell supernatant was taken from each well and added to a plate containing QUANTI-Blue™ reagent at 180 μL/well. The plate was incubated at 37° C. for 1 hour, and the absorbance at 650 nm (OD650) was measured on the multifunctional microplate reader Flexstation III.\n(§8) Compound activity data analysis: The OD650 values were analyzed by GraphPad Prism software and fitted to give dose-response curves of the compounds. The EC50 values of compounds were calculated.", "units": {"EC50": "nM"}}
{"smiles": "CCCN(OCc1ccc(N)cc1)C(=O)C1=Cc2ccc(C(=O)Nc3cccc(CN)c3)cc2N=C(N)C1", "note": "[Compound 86]", "EC50": "> 1000"}
{"smiles": "CCCN(OCc1ccc(N)cc1Cl)C(=O)C1=Cc2ncc(-c3cncc(CO)c3)cc2N=C(N)C1", "note": "[Compound 59]", "EC50": "100 to 1000"}
{"smiles": "CCCN(OCc1ccc(N)cc1)C(=O)C1=Cc2ccc(C(=O)Nc3ccn(C)n3)cc2N=C(N)C1", "note": "[Compound 88]", "EC50": "> 1000"}
{"smiles": "CCCN(OCc1ccc(N)cc1)C(=O)C1=Cc2ccc(C(=O)NC(C)(C)c3ccccc3)cc2N=C(N)C1", "note": "[Compound 76]", "EC50": "100 to 1000"}
{"smiles": "CCCN(OCc1ccc(N)cc1)C(=O)C1=Cc2ccc(C(=O)Nc3cncc(OC)c3)cc2N=C(N)C1", "note": "[Compound 85]", "EC50": "> 1000"}
{"smiles": "CCCN(OCc1ccc(N)cc1)C(=O)C1=Cc2ccc(-c3cccc(S(=O)(=O)N4CCOCC4)c3)cc2N=C(N)C1", "note": "[Compound 68]", "EC50": "100 to 1000"}
{"smiles": "CCCN(OCc1ccc(N)cc1)C(=O)C1=Cc2ccc(-c3cccc(S(=O)(=O)N4CCNCC4)c3)cc2N=C(N)C1", "note": "[Compound 67]", "EC50": "100 to 1000"}
{"smiles": "CCCN(OCc1ccc(N)cc1)C(=O)C1=Cc2ccc(C(=O)N3CC(Oc4ccccc4)C3)cc2N=C(N)C1", "note": "[Compound 94]", "EC50": "100 to 1000"}
{"smiles": "CCCN(OCc1ccc(N)cc1)C(=O)C1=Cc2ccc(C(=O)NC3CCCCC3)cc2N=C(N)C1", "note": "[Compound 82]", "EC50": "> 1000"}
{"biological_target": "T1, hTLR7 (human Toll-like receptor 7)", "test": "HEK-Blue hTLR7 reporter assay (QUANTI-Blue, OD650)", "type": "cell-based", "conditions": "HEK-Blue hTLR7 cells, 24 h; read-out: Reporter assay TLR7 EC50", "description": "as §1, §2, §3, §4, §5, §6, §7, §8", "units": {"EC50": "nM"}}
{"smiles": "CCCN(OCc1ccc(N)cc1)C(=O)C1=Cc2ccc(-c3cncc(Cl)c3)cc2N=C(N)C1", "note": "[Compound 49]", "EC50": 245}
{"smiles": "CCCN(OCc1ccc(N)cc1)C(=O)C1=Cc2ccc(-c3cncc(CO)c3)cc2N=C(N)C1", "note": "[Compound 15]", "EC50": 712}
{"smiles": "CCCN(OCc1ccc(N)cc1)C(=O)C1=Cc2ccc(-c3cncc(C#N)c3)cc2N=C(N)C1", "note": "[Compound 50]", "EC50": 274}
{"smiles": "NC1=Nc2cc(-c3cncc(CO)c3)ccc2C=C(C(=O)N(CC2CC2)OCc2ccc(N)cc2)C1", "note": "[Compound 45]", "EC50": 1160}
{"smiles": "CCCN(OCc1ccc(N)cc1)C(=O)C1=Cc2ccc(-c3cncc(CN)c3)cc2N=C(N)C1", "note": "[Compound 54]", "EC50": 528}
{"smiles": "CCCN(OCc1ccc(N)cc1)C(=O)C1=Cc2ccc(-c3cncc(S(C)(=O)=O)c3)cc2N=C(N)C1", "note": "[Compound 56]", "EC50": 664}
{"smiles": "CCCN(OCc1ccc(N)cc1)C(=O)C1=Cc2ccc(-c3cccc(S(=O)(=O)N4CC(O)C4)c3)cc2N=C(N)C1", "note": "[Compound 41]", "EC50": 2240}
{"tested_on": "TNF-α production in human PBMCs", "test": "Induction of TNF-α in human PBMCs (ELISA)", "type": "cell-based", "conditions": "PBMC, 24 h, serial 3-fold dilutions, read-out: PBMC assay TNFa EC50", "description": "(§9) In this example, the induction activity of the compounds of the present application on human PBMCs for TNF-α and IFN-α production was assessed in human PBMCs (human peripheral blood mononuclear cells). The human PBMCs were purchased from Shanghai Saily Biotechnology Co., Ltd. (Cat. No. XFB—HP100B). PBMC cells were treated with the compounds. The compounds of the present application are diluted in DMSO, for example, to about 15 mM. The reference compound was added to the plates in sequence after diluted to 5 mg/mL. The compounds were serially 3- or 4-fold diluted to 8 concentrations and added to plates in duplicate (Table 2-1 for serial 3-fold dilutions and Table 2-2 for serial 4-fold dilutions). For the negative control wells, DMSO was added at 0.4 μL/well, and a 5 mg/mL reference compound solution was added to the positive control wells at 0.4 μL/well. The final concentration of DMSO was 0.2%. Frozen human PBMCs in cryopreservation tubes were quickly thawed in a 37° C. water bath and transferred into 50-mL centrifuge tubes. Prewarmed RPMI1640 medium was gradually added and the mixture was well mixed and centrifuged for 15 min before the supernatant was discarded. The cells were resuspended in a culture medium and counted. The cell suspension was adjusted to 2.5×10^6 cells/mL with the culture medium. Diluted cells were added at 200 μL/500,000 cells/well in 96-well plates containing the compounds. The cell plates were incubated at 37° C./5% CO2 for 24 h.\n(§10) The plate was then washed thrice. […] Termination of reaction: The reaction was terminated by quickly adding the stop solution at 100 μL/well. Plate reading: The reading at wavelength 450 nm was detected by an M2e instrument within 10 min after the termination.\n(§11) Compound activity data analysis: The OD450 values were converted to TNF-α and IFN-α contents by GraphPad Prism software analysis and fitted to give dose-response curves of the compounds. The EC50 values for the compounds were calculated, where the Emax values are the maximal values for TNF-α and IFN-α.", "units": {"EC50": "nM"}}
{"smiles": "CCCN(OCc1ccc(N)cc1)C(=O)C1=Cc2ccc(-c3cncc(Cl)c3)cc2N=C(N)C1", "note": "[Compound 49]", "EC50": 26.1}
{"smiles": "CCCN(OCc1ccc(N)cc1)C(=O)C1=Cc2ccc(-c3cncc(CO)c3)cc2N=C(N)C1", "note": "[Compound 15]", "EC50": 3}
{"smiles": "CCCN(OCc1ccc(N)cc1)C(=O)C1=Cc2ccc(-c3cncc(C#N)c3)cc2N=C(N)C1", "note": "[Compound 50]", "EC50": 7.7}
{"smiles": "NC1=Nc2cc(-c3cncc(CO)c3)ccc2C=C(C(=O)N(CC2CC2)OCc2ccc(N)cc2)C1", "note": "[Compound 45]", "EC50": 7.33}
{"smiles": "CCCN(OCc1ccc(N)cc1)C(=O)C1=Cc2ccc(-c3cncc(CN)c3)cc2N=C(N)C1", "note": "[Compound 54]", "EC50": 3.98}
{"smiles": "CCCN(OCc1ccc(N)cc1)C(=O)C1=Cc2ccc(-c3cncc(S(C)(=O)=O)c3)cc2N=C(N)C1", "note": "[Compound 56]", "EC50": 7.35}
{"smiles": "CCCN(OCc1ccc(N)cc1)C(=O)C1=Cc2ccc(-c3cccc(S(=O)(=O)N4CC(O)C4)c3)cc2N=C(N)C1", "note": "[Compound 41]", "EC50": 15.3}
{"tested_on": "TNF-α production in human PBMCs", "test": "Induction of TNF-α in human PBMCs (ELISA)", "type": "cell-based", "conditions": "PBMC, 24 h, serial 4-fold dilutions, class symbols, read-out: PBMC assay TNFa EC50", "description": "as §9, §10, §11", "units": {"EC50": "nM"}}
{"smiles": "CCCN(OCc1ccc(N)cc1)C(=O)C1=Cc2ccc(C(=O)Nc3cccc(CN)c3)cc2N=C(N)C1", "note": "[Compound 86]", "EC50": "≤ 10"}
{"smiles": "CCCN(OCc1ccc(N)cc1Cl)C(=O)C1=Cc2ncc(-c3cncc(CO)c3)cc2N=C(N)C1", "note": "[Compound 59]", "EC50": "≤ 10"}
{"smiles": "CCCN(OCc1ccc(N)cc1)C(=O)C1=Cc2ccc(C(=O)Nc3ccn(C)n3)cc2N=C(N)C1", "note": "[Compound 88]", "EC50": "≤ 10"}
{"smiles": "CCCN(OCc1ccc(N)cc1)C(=O)C1=Cc2ccc(C(=O)NC(C)(C)c3ccccc3)cc2N=C(N)C1", "note": "[Compound 76]", "EC50": "≤ 10"}
{"smiles": "CCCN(OCc1ccc(N)cc1)C(=O)C1=Cc2ccc(C(=O)Nc3cncc(OC)c3)cc2N=C(N)C1", "note": "[Compound 85]", "EC50": "≤ 10"}
{"smiles": "CCCN(OCc1ccc(N)cc1)C(=O)C1=Cc2ccc(-c3cccc(S(=O)(=O)N4CCOCC4)c3)cc2N=C(N)C1", "note": "[Compound 68]", "EC50": "≤ 10"}
{"smiles": "CCCN(OCc1ccc(N)cc1)C(=O)C1=Cc2ccc(-c3cccc(S(=O)(=O)N4CCNCC4)c3)cc2N=C(N)C1", "note": "[Compound 67]", "EC50": "≤ 10"}
{"smiles": "CCCN(OCc1ccc(N)cc1)C(=O)C1=Cc2ccc(C(=O)N3CC(Oc4ccccc4)C3)cc2N=C(N)C1", "note": "[Compound 94]", "EC50": "≤ 10"}
{"smiles": "CCCN(OCc1ccc(N)cc1)C(=O)C1=Cc2ccc(-c3cccc(S(=O)(=O)N4CC(O)C4)c3)cc2N=C(N)C1", "note": "[Compound 41]", "EC50": "≤ 10"}
{"smiles": "CCCN(OCc1ccc(N)cc1)C(=O)C1=Cc2ccc(C(=O)NC3CCCCC3)cc2N=C(N)C1", "note": "[Compound 82]", "EC50": "≤ 10"}
